Literature values in US8952001B2, “Amino-heteroaryl derivatives as HCN blockers” (Merck Sharp & Dohme Corp., priority 2009, dated 2015).
Where two headings read alike, the source gives them in different places.

Tests used:
[1] = test system: nerve injured myelinated DRG
spontaneous pain = conditions: rat, mild thermal injury model
allodynia = conditions: rat CFA model of inflammatory pain
mechanical allodynia [2] = conditions: intraperitoneal administration; Chung/von Frey
[3] = test system: ectopic discharges in A-beta and A-delta fibres; conditions: without causing conduction block
mechanical allodynia [4] = conditions: local administration to the sciatic nerve 4 h after surgery in rats; Brennan model

CCN(c1ccccc1)c1cc(=NC)n(C)c(C)n1.Cl [ZD 7288]
spontaneous activity [1]: reduces spontaneous activity
spontaneous pain (spontaneous pain): blocks spontaneous pain
allodynia (allodynia): suppresses allodynia
mechanical allodynia (mechanical allodynia [2]): dose-dependently reverses mechanical allodynia
firing frequency of ectopic discharges [3]: reduced the firing frequency of ectopic discharges
mechanical allodynia (mechanical allodynia [4]): attenuates mechanical allodynia
